Consider six molecules from PMC8463504 (Journal of inorganic biochemistry, 2021).

Read-outs that look alike come from different tables or passages of the source.

Series [1] is classed as physicochemical. The following applies: for % folded protein: below pH 4.4; for pKa of acid denaturation: sigmoidal-Boltzmann fit of % folded protein vs pH.
Series [2] deals with T1, HbI (Phacoides pectinatus, UniProt P41260). The series can be described thus: biochemical. As to conditions: Measured fluoride binding dissociation constant (Kd), pH 5.0.
The next series addresses adult hemoglobin (A-Hb) (Homo sapiens, UniProt P68871+P69905). Nature of the series: biochemical. As to conditions: Measured fluoride binding dissociation constant (Kd).
Series [3] addresses T1, HbI. The following applies: pH 4 to 7 range.
In series [4] the target is T2, HbIII (Phacoides pectinatus, UniProt P41262).
T2 sequence (P41262 1-153): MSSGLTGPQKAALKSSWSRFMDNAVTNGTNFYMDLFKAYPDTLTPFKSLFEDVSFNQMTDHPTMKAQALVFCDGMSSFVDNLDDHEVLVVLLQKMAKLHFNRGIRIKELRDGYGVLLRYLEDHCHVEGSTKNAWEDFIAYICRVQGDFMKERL
Nature of the series: biochemical.

Series [5] has as its target T3, HbII (Phacoides pectinatus, UniProt P41261).
T3 sequence (P41261 1-151): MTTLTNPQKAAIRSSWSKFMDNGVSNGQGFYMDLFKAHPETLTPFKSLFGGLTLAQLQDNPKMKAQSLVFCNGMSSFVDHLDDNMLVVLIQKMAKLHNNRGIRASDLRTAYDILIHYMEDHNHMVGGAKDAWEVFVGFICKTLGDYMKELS
The series can be described thus: biochemical.

For series [6], the target named is horse heart myoglobin (Mb) (Equus caballus, UniProt P68082). Nature of the series: biochemical.
Series [7] addresses T2, HbIII. The following applies: read-out: Equilibrium dissociation constant (Kd), pH 7.5; cited from earlier work.
Series [8] concerns the target T1, HbI. As to conditions: read-out: Equilibrium dissociation constant (Kd), pH 7.5; cited from earlier work.
The target in a further series is HHMb. The following applies: read-out: Equilibrium dissociation constant (Kd), pH 7.5; cited from earlier work.
For series [9], the target named is T3, HbII. The following applies: read-out: Equilibrium dissociation constant (Kd), pH 7.5; cited from earlier work.
The next series deals with His64. The series can be described thus: other. As to conditions: ferric heme-bound fluoride complex; cited from earlier work.
The conditions of series [10]: cited from earlier work.
Series [11] has as its target T2, HbIII. The following applies: read-out: Equilibrium dissociation constant (Kd), pH 7.5; cited from earlier work. This is another data set of the same source.
Series [12] addresses T3, HbII. As to conditions: read-out: Equilibrium dissociation constant (Kd), pH 7.5; cited from earlier work. This is another data set of the same source.
Series [13] deals with T1, HbI. The following applies: cited from earlier work.
Setting [14] is: Equilibrium dissociation constant (Kd), pH 7.5.
Setting [15] is: Measured fluoride binding dissociation constant (Kd), pH 5.0.
Setting [16] is: Measured fluoride binding dissociation constant (Kd), pH 7.0.

Chain of horse heart myoglobin (Mb) (P68082 whole entry): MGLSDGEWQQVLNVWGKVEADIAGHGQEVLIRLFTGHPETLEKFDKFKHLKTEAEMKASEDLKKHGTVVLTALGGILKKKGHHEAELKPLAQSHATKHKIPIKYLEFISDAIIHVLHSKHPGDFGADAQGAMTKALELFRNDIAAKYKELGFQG
T1 sequence (P41260 whole entry): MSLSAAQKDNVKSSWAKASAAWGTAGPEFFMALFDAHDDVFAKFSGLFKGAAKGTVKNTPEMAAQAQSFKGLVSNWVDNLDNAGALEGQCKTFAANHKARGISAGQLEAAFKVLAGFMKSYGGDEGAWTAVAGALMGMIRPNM
Chain of adult hemoglobin (A-Hb) (P69905 2-142 limits assumed): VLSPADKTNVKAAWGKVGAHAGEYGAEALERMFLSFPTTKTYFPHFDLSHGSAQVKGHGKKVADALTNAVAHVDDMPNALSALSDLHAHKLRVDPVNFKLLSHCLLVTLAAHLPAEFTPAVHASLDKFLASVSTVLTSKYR
Chain of adult hemoglobin (A-Hb) (P68871 2-147 limits assumed): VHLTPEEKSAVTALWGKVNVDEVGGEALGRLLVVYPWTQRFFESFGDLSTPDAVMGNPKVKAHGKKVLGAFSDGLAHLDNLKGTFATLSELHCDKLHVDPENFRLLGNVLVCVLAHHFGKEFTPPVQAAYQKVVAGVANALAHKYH

Consider “A-Hb: Adult hemoglobin purchased from Sigma-Aldrich”, for which, in series [1], the “% folded protein” value was “less than 50%” and the “pKa of acid denaturation” value came out at 4.4.

Take `F` [fluoride, sodium fluoride]: the Kd at HbI [2] was determined as 100000 ± 61000 µM; on adult hemoglobin (A-Hb) (pH 5.0), 9300 ± 5800 µM; at adult hemoglobin (A-Hb) (pH 7.0), 33000 ± 4000 µM; at HbIII [4] (Apparent Kd from non-linear fit, above pH 12), 4000 µM; at HbIII [4] (setting [14]), 2900 µM; on HbIII [4] (setting [15]) it was 500 ± 332 µM. Further, the Kd at HbIII [4] (setting [16]) turned out to be 3100 ± 370 µM; at HbII [5] (setting [14]) it was 3700 µM; at HbII [5] (setting [15]), 330 ± 67 µM; on HbII [5] (setting [16]), 1000 ± 156 µM; in [6] (Equilibrium dissociation constant (Kd), HHMb, pH 7.5) it was 41000 µM; in series [6] (Measured fluoride binding dissociation constant (Kd), Mb, pH 5.0), 3000 ± 820 µM. Besides, the Kd in series [6] (Measured fluoride binding dissociation constant (Kd), Mb, pH 7.0) was 25000 ± 2800 µM. On HbI [3], the “Fluoride affinity in HbI, lower than the other studied heme proteins” value is on record as “about two orders of magnitude”.

For `O=O` [O2, oxygen], the Kd on HbIII [7] is 0.26 µM; at HbI [8] it was roughly 0.4 µM; on HHMb, 1.3 µM; at HbII [9] it was 0.28 µM.

For “Myoglobin (quoted literature values; species not stated in this article)”, the pKa in the series on His64 was 5.3–5.7.

As to `S` [H2S, Hydrogen sulfide], the “pKa (H2S/HS^− equilibrium)” value in series [10] is on record as 7.0. The Kd at HbIII [11] was greater than 16 µM; at HbII [12], 14.5 µM; on HbI [13] (read-out: Equilibrium dissociation constant (Kd), HbI, pH 7.5) it was 0.0034 µM. The “Affinity of HbI for H2S relative to HbII and HbIII” value on HbI [13] (HbI greater than HbII and HbIII) is on record as 4,000 times.

B1: Mb: horse heart (methods: horse skeletal muscle) myoglobin purchased from Sigma-Aldrich (protein, UniProt P68082 2-154, looked up)
Myoglobin: GLSDGEWQQVLNVWGKVEADIAGHGQEVLIRLFTGHPETLEKFDKFKHLKTEAEMKASEDLKKHGTVVLTALGGILKKKGHHEAELKPLAQSHATKHKIPIKYLEFISDAIIHVLHSKHPGDFGADAQGAMTKALELFRNDIAAKYKELGFQG
On to B1, for which, in series [1], the “% folded protein” value is “less than 50%” and the “pKa of acid denaturation” value worked out at 4.4.
